Test results reported in PubChem BioAssay (NCI).
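In this assay, cells in 96-well plates receive the compound at five concentrations for 48 hours. Endpoints are linearly interpolated between the surrounding concentrations. Abbreviation: GI50, concentration required for 50% inhibition of growth. TGI is the concentration that stops growth completely.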

Columns and labels:
Experiment in all cases: NCI-60 cell line screen, 48 h
KM12 colon = system: KM12 colon
HT29 colon = system: HT29 colon
RXF 393 renal = system: RXF 393 renal
MOLT-4 leukemia = system: MOLT-4 leukemia
SR leukemia = system: SR leukemia
NCI-H226 lung = system: NCI-H226 lung
SK-OV-3 ovarian = system: SK-OV-3 ovarian
MDA-MB-435 = system: MDA-MB-435
TK-10 renal = system: TK-10 renal
SNB-75 CNS = system: SNB-75 CNS
CCRF-CEM leukemia = system: CCRF-CEM leukemia
OVCAR-4 ovarian = system: OVCAR-4 ovarian
SF-539 CNS = system: SF-539 CNS
OVCAR-3 ovarian = system: OVCAR-3 ovarian
K-562 leukemia = system: K-562 leukemia
PC-3 prostate = system: PC-3 prostate
SW-620 colon = system: SW-620 colon
EKVX NSCLC = system: EKVX NSCLC
COLO 205 colon = system: COLO 205 colon
HL-60(TB) leukemia = system: HL-60(TB) leukemia
SF-268 CNS = system: SF-268 CNS
HS 578T breast = system: HS 578T breast
RPMI-8226 leukemia = system: RPMI-8226 leukemia
LOX IMVI melanoma = system: LOX IMVI melanoma
SK-MEL-2 melanoma = system: SK-MEL-2 melanoma
NCI/ADR-RES ovarian = system: NCI/ADR-RES ovarian
A498 renal = system: A498 renal
HOP-92 NSCLC = system: HOP-92 NSCLC
MDA-MB-231 breast = system: MDA-MB-231 breast
SK-MEL-28 melanoma = system: SK-MEL-28 melanoma
SN12C renal = system: SN12C renal
ACHN renal = system: ACHN renal
MCF7 breast = system: MCF7 breast
M14 melanoma = system: M14 melanoma
T-47D breast = system: T-47D breast
SNB-19 CNS = system: SNB-19 CNS
HCC-2998 colon = system: HCC-2998 colon
OVCAR-5 ovarian = system: OVCAR-5 ovarian
IGROV1 ovarian = system: IGROV1 ovarian
HCT-116 colon = system: HCT-116 colon
SF-295 CNS = system: SF-295 CNS
BT-549 breast = system: BT-549 breast
NCI-H23 lung = system: NCI-H23 lung
UACC-62 melanoma = system: UACC-62 melanoma
NCI-H522 lung = system: NCI-H522 lung
HOP-62 NSCLC = system: HOP-62 NSCLC
HCT-15 colon = system: HCT-15 colon
OVCAR-8 ovarian = system: OVCAR-8 ovarian
786-0 renal = system: 786-0 renal
U251 CNS = system: U251 CNS
SK-MEL-5 melanoma = system: SK-MEL-5 melanoma
NCI-H460 lung = system: NCI-H460 lung
A549 NSCLC = system: A549 NSCLC
UO-31 renal = system: UO-31 renal
UACC-257 melanoma = system: UACC-257 melanoma
MALME-3M melanoma = system: MALME-3M melanoma

Molecule `CC(C)C[C@H]1C(=O)O[C@H](C(C)C)C(=O)N(C)[C@@H](C(C)C)C(=O)O[C@H](C(C)C)C(=O)N(C)[C@@H](C(C)C)C(=O)O[C@H](C(C)C)C(=O)N1C` has a GI50 (KM12 colon) of 3.25 µM, a TGI (KM12 colon) greater than 10 µM and a GI50 (HT29 colon) of 3.4 µM. For the same molecule, the TGI (HT29 colon) was greater than 10 µM, the GI50 (RXF 393 renal) was 3.33 µM and the TGI (RXF 393 renal) was greater than 10 µM. It also gave a GI50 (MOLT-4 leukemia) of 3.27 µM, a TGI (MOLT-4 leukemia) greater than 10 µM and a GI50 (SR leukemia) of 3.65 µM. It also gave a TGI (SR leukemia) greater than 10 µM, a GI50 (NCI-H226 lung) of 4.01 µM and a TGI (NCI-H226 lung) greater than 10 µM. The GI50 (SK-OV-3 ovarian) was 2.21 µM, the TGI (SK-OV-3 ovarian) was 6.05 µM and the GI50 (MDA-MB-435) was 3.46 µM. It also gave a TGI (MDA-MB-435) greater than 10 µM, a GI50 (TK-10 renal) of 3.27 µM and a TGI (TK-10 renal) greater than 10 µM. For the same molecule, the GI50 (SNB-75 CNS) was 2.25 µM, the TGI (SNB-75 CNS) was greater than 10 µM and the GI50 (CCRF-CEM leukemia) was 3.5 µM. The TGI (CCRF-CEM leukemia) was greater than 10 µM, the GI50 (OVCAR-4 ovarian) was 2.37 µM and the TGI (OVCAR-4 ovarian) was greater than 10 µM. It also gave a GI50 (SF-539 CNS) of 3.2 µM, a TGI (SF-539 CNS) greater than 10 µM and a GI50 (OVCAR-3 ovarian) of 2.4 µM. For the same molecule, the TGI (OVCAR-3 ovarian) was greater than 10 µM, the GI50 (K-562 leukemia) was 3.7 µM and the TGI (K-562 leukemia) was greater than 10 µM. For the same molecule, the GI50 (PC-3 prostate) was 3.15 µM, the TGI (PC-3 prostate) was greater than 10 µM and the GI50 (SW-620 colon) was 3.38 µM. It also gave a TGI (SW-620 colon) greater than 10 µM, a GI50 (EKVX NSCLC) of 3.1 µM and a TGI (EKVX NSCLC) greater than 10 µM. The GI50 (COLO 205 colon) was 1.64 µM, the TGI (COLO 205 colon) was 3.29 µM and the GI50 (HL-60(TB) leukemia) was 2.32 µM. It also gave a TGI (HL-60(TB) leukemia) of 5.23 µM, a GI50 (SF-268 CNS) of 3.71 µM and a TGI (SF-268 CNS) greater than 10 µM. It also gave a GI50 (HS 578T breast) of 4.1 µM, a TGI (HS 578T breast) greater than 10 µM and a GI50 (RPMI-8226 leukemia) of 1.53 µM. For the same molecule, the TGI (RPMI-8226 leukemia) was 5.56 µM, the GI50 (LOX IMVI melanoma) was 3.19 µM and the TGI (LOX IMVI melanoma) was greater than 10 µM. The GI50 (SK-MEL-2 melanoma) was 3.04 µM, the TGI (SK-MEL-2 melanoma) was greater than 10 µM and the GI50 (NCI/ADR-RES ovarian) was 2.9 µM. The TGI (NCI/ADR-RES ovarian) was greater than 10 µM, the GI50 (A498 renal) was 1.72 µM and the TGI (A498 renal) was 6.4 µM. It also gave a GI50 (HOP-92 NSCLC) of 1.7 µM, a TGI (HOP-92 NSCLC) of 5.51 µM and a GI50 (MDA-MB-231 breast) of 2.65 µM. For the same molecule, the TGI (MDA-MB-231 breast) was 8.22 µM, the GI50 (SK-MEL-28 melanoma) was 4.23 µM and the TGI (SK-MEL-28 melanoma) was greater than 10 µM. It also gave a GI50 (SN12C renal) of 3.09 µM, a TGI (SN12C renal) greater than 10 µM and a GI50 (ACHN renal) of 2.6 µM. The TGI (ACHN renal) was 8.83 µM, the GI50 (MCF7 breast) was 2.82 µM and the TGI (MCF7 breast) was greater than 10 µM. For the same molecule, the GI50 (M14 melanoma) was 3.65 µM, the TGI (M14 melanoma) was greater than 10 µM and the GI50 (T-47D breast) was 2.65 µM. The TGI (T-47D breast) was 8.43 µM, the GI50 (SNB-19 CNS) was 3.4 µM and the TGI (SNB-19 CNS) was greater than 10 µM. For the same molecule, the GI50 (HCC-2998 colon) was 3.9 µM, the TGI (HCC-2998 colon) was greater than 10 µM and the GI50 (OVCAR-5 ovarian) was 2.88 µM. The TGI (OVCAR-5 ovarian) was greater than 10 µM, the GI50 (IGROV1 ovarian) was 4.46 µM and the TGI (IGROV1 ovarian) was greater than 10 µM. The GI50 (HCT-116 colon) was 3.18 µM, the TGI (HCT-116 colon) was greater than 10 µM and the GI50 (SF-295 CNS) was 2.72 µM. It also gave a TGI (SF-295 CNS) greater than 10 µM, a GI50 (BT-549 breast) of 3.43 µM and a TGI (BT-549 breast) greater than 10 µM. The GI50 (NCI-H23 lung) was 3.19 µM, the TGI (NCI-H23 lung) was greater than 10 µM and the GI50 (UACC-62 melanoma) was 3.47 µM. For the same molecule, the TGI (UACC-62 melanoma) was greater than 10 µM, the GI50 (NCI-H522 lung) was 2.61 µM and the TGI (NCI-H522 lung) was greater than 10 µM. For the same molecule, the GI50 (HOP-62 NSCLC) was 2.82 µM, the TGI (HOP-62 NSCLC) was greater than 10 µM and the GI50 (HCT-15 colon) was 3.05 µM. The TGI (HCT-15 colon) was greater than 10 µM, the GI50 (OVCAR-8 ovarian) was 3.17 µM and the TGI (OVCAR-8 ovarian) was greater than 10 µM. It also gave a GI50 (786-0 renal) of 3.71 µM, a TGI (786-0 renal) greater than 10 µM and a GI50 (U251 CNS) of 3.51 µM. It also gave a TGI (U251 CNS) greater than 10 µM, a GI50 (SK-MEL-5 melanoma) of 1.87 µM and a TGI (SK-MEL-5 melanoma) of 4.05 µM. For the same molecule, the GI50 (NCI-H460 lung) was 3.14 µM, the TGI (NCI-H460 lung) was greater than 10 µM and the GI50 (A549 NSCLC) was 3.44 µM. For the same molecule, the TGI (A549 NSCLC) was greater than 10 µM, the GI50 (UO-31 renal) was 1.81 µM and the TGI (UO-31 renal) was 7.69 µM. It also gave a GI50 (UACC-257 melanoma) of 2.62 µM, a TGI (UACC-257 melanoma) of 8.49 µM and a GI50 (MALME-3M melanoma) of 2.06 µM. For the same molecule, the TGI (MALME-3M melanoma) was 8.67 µM.
